Values quoted from earlier work in article PMC6987128, “Target protein-oriented isolation of Hes1 dimer inhibitors using protein based methods” (Scientific Reports, 2020).

Test system: NSCs
Details: cited from earlier work

Row | Molecule | differentiation of NSCs to neurons
1 | COc1ccc(-c2cc(=O)c3c(O[C@@H]4O[C@H](CO[C@@H]5OC[C@@H](O)[C@H](O)[C@H]5O)[C@@H](O)[C@H](O)[C@H]4O)cc(OC)cc3o2)cc1 [agalloside] | accelerated the differentiation of NSCs to neurons
2 | C/C=C/C=C/C=C/[C@@H]1NCC[C@@H](O)[C@H]1C [inohanamine] | accelerated the differentiation of NSCs to neurons
3 | isomicromonolactam | accelerated the differentiation of NSCs to neurons
